Results reported in patent publication US20260373119A1, “NOVEL COMPOUND, AND COMPOSITION FOR PREVENTING OR TREATING HER2-POSITIVE CANCER, COMPRISING SAME” (EWHA UNIVERSITY - INDUSTRY COLLABORATION FOUNDATION, priority 2022, published 2026).

Columns and labels:
MED23-ELK1 PPI = target: T1, MED23-ELK1 PPI (Homo sapiens, UniProt Q9ULK4); assay: immunoprecipitation, MED23-ELK1 PPI; assay type: cell-based
T1 construct: co-immunoprecipitation of ELK1, probably endogenous
Description: (§1) NCI-N87 cells from a gastric cancer cell line were seeded in a 100 mm cell culture dish and cultured until they reached 60-70% confluence. The cultured cells were transfected with p3Xflag-myc-CMV26-empty or p3Xflag-myc-CMV26-MED23^WT plasmids using Lipofectamine® 2000 (Invitrogen, USA). After transfection, YK1 (5 μM) was added 12 hours post-transfection, and the cells were cultured for 12 hours. A total of 750 μg of cell lysate was incubated with 20 μL of FLAG-agarose bead slurry (Sigma Aldrich, USA) on a rotator at 4 °C for 4 hours. The sample was centrifuged at 12,000 rpm for 1 minute to precipitate the beads. After removing the supernatant, the remaining beads were washed three times with 200 μL of lysis buffer (RIPA).
(§2) After removing the final supernatant, the beads were eluted by boiling with 2× sample buffer at 98 °C for 5 minutes. The immunoprecipitated proteins were loaded, separated by SDS-PAGE, and analyzed by Western blotting.

HER2 = assay: JIMT-1 xenograft, HER2 levels; assay type: in vivo, mice; conditions: 4 mg/kg
Description: Xenograft mice were generated to evaluate the anticancer effects of the candidate compound. NCI-N87 and JIMT-1 cells (5×10^6 cells), dissolved in 100 μL of 1× phosphate-buffered saline (PBS), were subcutaneously injected into the right flanks of 5-week-old female athymic nude mice (Envigo, USA) or 4-week-old female NOD-SCID mice (Koatech, South Korea). When the tumors reached a volume of 90-100 mm^3, the mice were randomized into designated groups. For the NCI-N87 xenograft, intravenous administration was performed six times at 3-day intervals. For the JIMT-1 xenograft, intraperitoneal administration was performed eight times at 3-day intervals. […] Tumor size changes were monitored until the mean tumor size in the control group reached 2,000-2,500 mm^3. On day 28 for the NCI-N87 xenograft and day 46 for the JIMT-1 xenograft, the mice were sacrificed, and tumors were excised to determine relative tumor sizes. Tumor length (L) and width (W) were measured with calipers, and tumor volume was calculated using the formula: […]
For immunohistochemistry (IHC) analysis, tumors from the xenograft models were prepared as paraffin-embedded sections. […] The control group was counterstained with hematoxylin, and the IHC staining was evaluated under an optical microscope at 200× magnification.

MED23391-625 fragment = MED23391-625 fragment (Homo sapiens, UniProt Q9ULK4); assay: LC-MS/MS protein-small molecule interaction, MED23 fragments; assay type: binding
MED23391-625 fragment, sequence (Q9ULK4 391-625): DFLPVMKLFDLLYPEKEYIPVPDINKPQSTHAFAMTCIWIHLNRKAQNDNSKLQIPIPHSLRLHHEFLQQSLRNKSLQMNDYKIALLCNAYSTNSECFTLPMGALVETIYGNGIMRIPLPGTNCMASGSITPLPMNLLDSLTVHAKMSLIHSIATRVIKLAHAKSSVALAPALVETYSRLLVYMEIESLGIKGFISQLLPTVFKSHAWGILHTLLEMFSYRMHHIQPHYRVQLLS

NCI-N87 cells = assay: cell cycle analysis (FACS); assay type: cell-based
Description: Specifically, 5×10^5 NCI-N87 cells were seeded in 60 mm dishes and cultured until they reached 70-80% confluence. The cells were treated with varying concentrations of the candidate compound and cultured for 8 hours. The cells were treated with trypsin and then washed with cold PBS (pH 7.4). For cell cycle analysis, the cells were fixed with 70% ethanol and cultured at 4 °C for 30 minutes, followed by staining with FxCycle™ PI/RNase staining solution (Invitrogen™, USA). Cell cycle analysis was performed using a fluorescence-activated cell sorting (FACS) device (BD Biosciences, USA).

PI3 Kinase (p110a/p85a) = PI3 Kinase (p110a/p85a) (Homo sapiens, UniProt P42336); assay: kinase profiling, PI3 kinase; assay type: biochemical; conditions: read-out: In vitro kinase inhibitory activity (%)
PI3 Kinase (p110a/p85a), sequence (P42336 whole entry): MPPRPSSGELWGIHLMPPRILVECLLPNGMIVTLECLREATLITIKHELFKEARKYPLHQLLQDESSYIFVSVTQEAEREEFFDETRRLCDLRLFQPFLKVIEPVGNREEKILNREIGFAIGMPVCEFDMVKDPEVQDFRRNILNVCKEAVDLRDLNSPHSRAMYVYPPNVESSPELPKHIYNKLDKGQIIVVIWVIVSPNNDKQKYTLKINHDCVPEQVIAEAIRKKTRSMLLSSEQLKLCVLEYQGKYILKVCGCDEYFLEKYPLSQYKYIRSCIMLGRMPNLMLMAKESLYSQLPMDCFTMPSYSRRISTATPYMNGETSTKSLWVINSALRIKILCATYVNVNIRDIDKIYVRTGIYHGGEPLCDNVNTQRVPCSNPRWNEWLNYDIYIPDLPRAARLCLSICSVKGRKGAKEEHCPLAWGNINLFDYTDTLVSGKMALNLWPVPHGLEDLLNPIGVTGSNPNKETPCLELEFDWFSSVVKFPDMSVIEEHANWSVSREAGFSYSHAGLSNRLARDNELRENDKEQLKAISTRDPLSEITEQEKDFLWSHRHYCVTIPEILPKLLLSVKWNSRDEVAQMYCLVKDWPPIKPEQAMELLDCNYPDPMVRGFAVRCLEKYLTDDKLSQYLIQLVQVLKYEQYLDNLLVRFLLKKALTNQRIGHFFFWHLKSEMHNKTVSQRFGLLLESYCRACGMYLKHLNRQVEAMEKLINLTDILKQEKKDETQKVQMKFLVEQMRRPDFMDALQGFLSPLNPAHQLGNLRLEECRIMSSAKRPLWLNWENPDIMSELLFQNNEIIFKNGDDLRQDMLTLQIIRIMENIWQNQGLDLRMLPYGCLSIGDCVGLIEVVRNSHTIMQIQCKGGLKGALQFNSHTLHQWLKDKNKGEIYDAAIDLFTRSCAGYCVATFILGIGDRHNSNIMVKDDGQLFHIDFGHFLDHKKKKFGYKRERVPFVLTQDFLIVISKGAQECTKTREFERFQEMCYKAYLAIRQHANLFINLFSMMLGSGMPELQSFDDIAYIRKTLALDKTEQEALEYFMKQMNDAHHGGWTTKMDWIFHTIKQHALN
PI3 Kinase (p110a/p85a), sequence (P27986 whole entry partner): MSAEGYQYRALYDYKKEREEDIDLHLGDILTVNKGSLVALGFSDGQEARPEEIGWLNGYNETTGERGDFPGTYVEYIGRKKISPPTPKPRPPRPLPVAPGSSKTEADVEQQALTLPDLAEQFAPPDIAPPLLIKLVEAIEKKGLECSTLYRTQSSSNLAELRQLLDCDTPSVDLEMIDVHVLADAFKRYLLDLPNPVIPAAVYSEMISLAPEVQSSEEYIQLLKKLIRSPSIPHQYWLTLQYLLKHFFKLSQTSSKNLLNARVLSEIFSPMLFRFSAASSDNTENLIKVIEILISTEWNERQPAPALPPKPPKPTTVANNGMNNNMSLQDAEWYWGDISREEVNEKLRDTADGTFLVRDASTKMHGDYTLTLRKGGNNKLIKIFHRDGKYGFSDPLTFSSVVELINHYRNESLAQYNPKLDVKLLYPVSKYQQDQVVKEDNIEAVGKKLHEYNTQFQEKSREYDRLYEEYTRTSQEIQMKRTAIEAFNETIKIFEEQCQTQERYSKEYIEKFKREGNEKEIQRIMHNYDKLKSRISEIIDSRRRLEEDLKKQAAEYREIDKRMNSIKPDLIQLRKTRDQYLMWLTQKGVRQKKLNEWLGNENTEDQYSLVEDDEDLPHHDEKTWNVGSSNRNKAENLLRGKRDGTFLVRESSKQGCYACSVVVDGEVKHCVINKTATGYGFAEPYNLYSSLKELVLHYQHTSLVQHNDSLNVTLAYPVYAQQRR
Description: Kinase inhibitory activity of the candidate compound at 10 μM and 25 μM was assessed using Eurofins Kinase Profiling Services. Inhibitory effects on c-RAF, EGFR, ErbB2, ErbB4, and PI3 kinase were analyzed according to the Kinase Profiler Service Assay protocol.

[1] = pharmacokinetic profiling; assay type: in vivo
MED23-IRF7 PPI = target: T2, MED23-IRF7 PPI (Homo sapiens, UniProt Q9ULK4); assay: immunoprecipitation, MED23-IRF7 PPI; assay type: cell-based
T2 construct: co-immunoprecipitation of IRF7, probably endogenous
T2 sequence (Q9ULK4 whole entry): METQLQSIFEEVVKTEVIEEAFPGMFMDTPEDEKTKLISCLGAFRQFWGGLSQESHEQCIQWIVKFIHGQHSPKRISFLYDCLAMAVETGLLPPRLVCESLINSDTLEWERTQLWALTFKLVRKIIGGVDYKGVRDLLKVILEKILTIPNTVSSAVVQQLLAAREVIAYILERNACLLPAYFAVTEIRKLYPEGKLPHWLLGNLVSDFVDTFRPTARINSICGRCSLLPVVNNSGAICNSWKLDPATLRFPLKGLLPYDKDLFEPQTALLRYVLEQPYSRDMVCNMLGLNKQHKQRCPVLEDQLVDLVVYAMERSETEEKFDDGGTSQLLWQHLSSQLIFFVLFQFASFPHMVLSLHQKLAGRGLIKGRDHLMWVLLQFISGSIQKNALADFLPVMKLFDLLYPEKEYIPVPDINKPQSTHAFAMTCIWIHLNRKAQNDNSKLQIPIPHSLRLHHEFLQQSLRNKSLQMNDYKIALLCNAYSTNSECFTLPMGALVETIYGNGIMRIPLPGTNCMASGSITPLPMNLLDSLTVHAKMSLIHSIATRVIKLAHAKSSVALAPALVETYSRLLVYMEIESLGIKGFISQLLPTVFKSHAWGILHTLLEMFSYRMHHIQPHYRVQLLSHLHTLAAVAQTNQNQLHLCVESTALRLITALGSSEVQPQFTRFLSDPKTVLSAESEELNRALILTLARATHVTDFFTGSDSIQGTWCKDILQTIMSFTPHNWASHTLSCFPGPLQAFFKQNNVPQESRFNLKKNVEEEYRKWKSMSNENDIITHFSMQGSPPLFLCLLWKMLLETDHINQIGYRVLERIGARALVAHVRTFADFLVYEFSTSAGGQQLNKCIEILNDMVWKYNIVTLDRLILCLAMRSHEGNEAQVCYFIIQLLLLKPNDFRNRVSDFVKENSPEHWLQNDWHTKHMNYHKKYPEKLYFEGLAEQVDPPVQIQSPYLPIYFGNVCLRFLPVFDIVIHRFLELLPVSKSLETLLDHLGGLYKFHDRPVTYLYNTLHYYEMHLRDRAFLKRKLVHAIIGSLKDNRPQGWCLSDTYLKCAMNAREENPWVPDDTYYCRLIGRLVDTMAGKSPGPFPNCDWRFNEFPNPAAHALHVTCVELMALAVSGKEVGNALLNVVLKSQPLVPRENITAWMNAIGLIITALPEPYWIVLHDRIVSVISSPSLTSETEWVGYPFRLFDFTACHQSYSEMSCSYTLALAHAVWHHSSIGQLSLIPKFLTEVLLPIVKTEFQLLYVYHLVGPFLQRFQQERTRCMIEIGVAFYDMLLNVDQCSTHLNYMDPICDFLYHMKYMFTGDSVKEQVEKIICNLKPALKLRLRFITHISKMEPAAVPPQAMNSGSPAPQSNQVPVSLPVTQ
Description: as §1, §2

T1 sequence (Q9ULK4 whole entry): as above

Structure (SMILES): CC(=O)N1N=C(c2cccc(O)c2)CC1c1ccc(Cl)cc1 (stereo not shown) [Compound 15, 1-[5-(4-Chlorophenyl)-3-(3-hydroxyphenyl)-4,5-dihydropyrazol-1-yl]-ethanone]
- PPI inhibitory effect on MED23-ELK1 (MED23-ELK1 PPI): did not inhibit these PPIs
- HER2 levels (HER2): significant reduction in HER2 levels
- interaction with MED23 fragments (MED23391-625 fragment): specifically interacted with the MED23391-625 fragment
- G1 arrest, S and G2/M phases (NCI-N87 cells): promoted overall G1 arrest, accompanied by a decrease in the S and G2/M phases
- G1 cell fraction (NCI-N87 cells; time- and dose-dependent): significant increase in the G1 cell fraction
- inhibition at 10 µM (PI3 Kinase (p110a/p85a); 10 μM): 3%
- inhibition at 25 µM (PI3 Kinase (p110a/p85a); 25 μM): 17%
- half-life T1/2 (IV) ([1]; intravenous): 9.74 ± 2.76 h
- bioavailability (Ft) ([1]; intravenous and oral routes): 25.1%
- PPI inhibitory effect on MED23-IRF7 (MED23-IRF7 PPI): did not inhibit these PPIs
